The values that follow come from PMC12186843, “Targeting GABAergic Hypofunction Associated with Schizophrenia: Identification of α1β2γ2GABA‑A Receptor Ligands with Neuroprotective and Antipsychotic Properties” (ACS Chemical Neuroscience, 2025).

Each structure is given as a SMILES string.

Data set [1] relates to SH-SY5Y cells. Put plainly: Intracellular calcium concentration after 6-OHDA (Fluo-4). In kind it is cell-based, human. The conditions noted are these: 50 μM pretreatment 1 h, then 6-OHDA 250 μM 1 h. On the procedure:
7 (A). Effect of 6-Hydroxydopamine (6-OHDA) on intracellular calcium concentration [Ca^2+] determined by Fluo-4 AM. After pretreatment with tested compounds (50 μM) or vehicle (0.5% DMSO, v/v) for 1 h, the cells were incubated with 6-Hydroxydopamine (6-OHDA, 250 μM) for 1 h. 6-OHDA control: cells treated with 250 μM of 6-OHDA. […]. DMSO control: cells treated with 0.5% DMSO only. Data are presented as the mean ± SD from 2–3 independent experiments. Experiments were carried on with ImageXpress Micro XLS (Molecular Devices). (B) The level of ROS generation was determined by Cell ROX dye. After pretreatment with tested compounds (50 μM) or vehicle (0.5% DMSO, v/v) for 1 h, the cells were incubated with hydrogen peroxide (H2O2, 300 μM) for 1 h. H2O2 control: cells treated with H2O2 (300 μM). DMSO control: cells treated with 0.5% DMSO only. Data are presented as the mean ± SD from 2–3 independent experiments. Experiments were carried on with the ImageXpress Micro XLS (Molecular Devices).
The SH-SY5Y human neuroblastoma cell line was maintained according to established protocols. The cells, obtained from the American Type Culture Collection (ATCC), were cultured in Dulbecco’s Modified Eagle’s Medium (DMEM, high glucose; Thermo Fisher), supplemented with 10% fetal bovine serum (Thermo Fisher), 100 IU/ml penicillin (Merck), and 100 μg/mL streptomycin (Merck). They were grown in 75 cm^2 flasks (Nunc) at 37 °C in a humidified atmosphere containing 5% CO2. For compound evaluation, SH-SY5Y cells were plated in 96-well plates (Falcon) at a density of 2 × 10^4 cells per well. The cells were allowed to adhere and grow for 24 h in an incubator set to 37 °C and 5% CO2 before starting the experiments. Stock solutions of both test and reference compounds were prepared at a concentration of 10^–2 M. A minimum of 1 mg of each compound was dissolved in dimethyl sulfoxide (DMSO). Serial dilutions were made in DMSO, then further diluted in PBS, mixed, and added to the cell culture medium.
The intracellular Ca^2+ levels were assessed using a homogeneous cell-based assay with the Fluo-4 Direct Calcium Assay Kit (Thermo Fisher). Following incubation with the tested compounds, the supernatant was discarded, and the cells were incubated with 1 μM Fluo-4/AM in FluoroBrite DMEM (Thermo Fisher) for 1 h at 37 °C. The results were expressed as a percentage relative to the control (DMSO). Fluorescence intensity was recorded using the ImageXpress Micro XLS system (Molecular Devices).

For data set [2] the following is noted: rats, i.p., 3 mg/kg, ref Mordyl, B. et al. J. Med. Chem. 2024, 67 (24), 21859–21889, cited from earlier work.
Data set [3] concerns MDR1-MDCKII cell line. Put plainly: A–B and B–A permeability assay in MDR1-MDCKII cell line. On the procedure: The A–B and B–A permeability assay using the MDR1-MDCKII cell line was conducted at Eurofins Discovery according to a well-established protocol.
Data set [4] has as its system Wistar rats. Put plainly: Amphetamine-induced hyperlocomotion. In kind it is in vivo, rat. The note with it: i.p., doses of 3.0 mg/kg and 10.0 mg/kg, amphetamine 1.0 mg/kg i.p., p < 0.01. The procedure:
8 (A). […] The dose of 0 mg/kg corresponds to subjects treated with vehicle and amphetamine (1.0 mg/kg, i.p.). Data are presented as the mean ± SEM (n = 8). One-way ANOVA F(3,28)=0.2, p > 0.05, one-way ANOVA F(3,28)=[…], p < 0.01**. (B). […] The dose of 0 mg/kg corresponds to subjects treated with vehicle and MK-801 (0.3 mg/kg, i.p.). Data are presented as the mean ± SEM (n = 8). ** p < 0.01, Newman-Keuls test, F(3,28)=5.29, p = 0.005. (C) Effects of compound 9, administered at doses ranging from 1 to 10 mg/kg, on spontaneous locomotor activity in rats. Data are presented as the mean ± SEM (n = 8). One-way ANOVA F(3,28) = 0.3, p > 0.05, one-way ANOVA F(3,28) = 6.7, p < 0.01*.
All behavioral procedures were conducted using drug-naive male Wistar rats (Charles River, Sulzfeld, Germany), (n = 8/per group). Animals were housed in groups of four per standard plastic cage under controlled environmental conditions (temperature: 22 ± 1 °C, humidity: 60%, and a 12:12 light-dark cycle with lights on at 07:00 a.m.). […]
All procedures were performed in a sound-attenuated experimental room between 9:00 a.m. and 3:00 p.m. […] Locomotor activity was measured in black octagonal cages (80 cm diameter, 30 cm height) amid dim lighting and constant white noise (65 dB). […] Locomotor activity (cm/30 min) was recorded and analyzed using an automated motion monitoring system (Videomot, TSE, Bad Homburg, Germany). […]

`Cc1ccc2nc(-c3ccc(F)cc3)c(CC(=O)N3CCCC3)n2c1.O=C(O)C(O)C(O)C(=O)O` [Compound 17, 2-(4-Fluorophenyl)-6-methyl-3-(2-oxo-2-(pyrrolidin-1-yl)-ethyl)imidazo[1,2-a]pyridin-1-ium 3-carboxy-2,3-dihydroxy-propanoate]: the “Reduction of intracellular calcium levels” value in data set [1] was 48%. The “t0.5 Plasma” value in data set [2] (n=6, plasma, terminal half life) is reported as 249 min. In data set [2] (n=6, brain), the “AUC0→t Brain” value is 8229 ng·min/g, the “Cmax Brain” value was 219.5 ng/g, the “MRT Brain” value is given as 102.5 min and the “tmax Brain” value was 5 min. In addition, the “t0.5 Brain” value in data set [2] (n=6, brain, terminal half life) is recorded as 653.2 min. Further, in data set [2] (n=6, plasma), the “AUC0→t Plasma” value was 128271 ng·min/mL, the “MRT Plasma” value is 50.9 min and the “tmax Plasma” value is reported as 5 min. Further, in data set [3] (MDCK-MDR1 permeability assay), the “Substrate for P-glycoprotein (P-gp) efflux” value is recorded as “not to be a substrate”. In data set [3] (pH 7.4/7.4, 6 and 17 at 10 μM), the “Permeability A–B” value is recorded as 55.6 10^–6 cm/s and the “Permeability B–A” value was 29.7 10^–6 cm/s. The “Effect on amphetamine-induced hyperlocomotion” value in data set [4] is reported as “significantly reduced amphetamine-induced hyperlocomotion”.
